In patent US20230061319A1, “METHODS OF TREATING TUMORS” (CoImmune, Inc., priority 2020, published 2023):

What was measured:
[1] = than rapamycin (sirolimus); cited from earlier work
[2] = than rapamycin (sirolimus); cited from earlier work; remark: listed apart in the source
[3] = tested on: healthy donor PBMC T cells; assay: Healthy donor PBMCs stimulated with autologous PME-CD40L-CMV DCs with mRCC patient plasma with or without everolimus; assay type: cell-based, human
Description: PBMCs and DCs were thawed and washed in PBS (Lonza) prior to counting. Post maturation electroporated monocyte-derived dendritic cells (PME-CD40L) were generated from healthy donors as described in DeBenedette MA. et al., J Immunol. 181(8):5296-5305 (2008) (incorporated herein by reference in its entirety), and were co-electroporated with RNA encoding the pp65 CMV protein and RNA encoding CD40L. Viable cell counts were performed using BD TruCount Absolute Counting Tubes and propidium iodide (BD Biosciences) by flow cytometry. PBMCs and DCs were re-suspended in X-Vivo15 (with gentamicin and phenol red) (Lonza) containing 10% normal human AB serum (Valley biomedical). […] Frozen PBMC vials from 2 HLA-mismatched healthy donors were thawed and counted. […] Purified Mouse anti-human CD3 (clone OKT3, BD Biosciences) was used to stimulate healthy donor PBMCs in culture.
HLA-mismatched healthy donor PBMCs were mixed and cultured for 7 days in the presence of 2% mRCC patient plasma and with or without 20 ng of everolimus added on day 0, and the frequency of CD28^+ memory T cells was determined. […] To expand the understating whereby everolimus can reduce the immune suppressive impact of mRCC, patient plasma PBMCs were stimulated with autologous DCs presenting the pp65 CMV antigen. Healthy donor PBMCs and autologous DCs were mixed and cultured for 6 days in the presence of 2% mRCC patient plasma and with or without 20 ng of everolimus added on day 0.
Furthermore, the impact of everolimus on the suppressive effect of mRCC patient plasma when PBMCs were stimulated with autologous DCs was examined.
To understand the ability of everolimus to restore the frequency of CD25^+CD28^+ T cells, the expression of both CD25 and CD28 on CD8 T cells stimulated in the MLR or with autologous DCs in the presence of mRCC patient plasma was measured by the geometric mean fluorescence intensity (MFI).

MART-1 specific CTLs [4] = assay: MART-1 specific CTL effector function (IFN-γ, TNF-α, IL-2 secretion, CD107a expression); assay type: cell-based, human; details: at the higher concentrations tested; compared to untreated CTLs
Description: PME-CD40L DCs derived from HLA-A2-positive donors and transfected with antigen-encoding mRNAs were co-cultured with purified CD8^+ T cells. All co-cultures were performed in R-10 media. CD8^+ T cells were purified using the CD8+ T Cell Negative Selection Kit II (Miltenyi Biotec) from non-adherent cells harvested from the monocyte adherence step. The CD8^+ cells were mixed with DCs at a 10:1 ratio and incubated in the presence of 0.2 µg/mL IL-2 and 10 ng/mL IL-7 (R&D Systems). DC/T cell co-cultures were re-stimulated on day 7 and supplemented with 20 units/mL IL-2 plus 10 ng/mL IL-7. Induction of primary immune responses to MART-1 and memory/recall responses to CMV pp65 were measured on day 10.
To identify antigen-specific T cell responses and the phenotype of the antigen specific cells, T cells were harvested on day 10 post-stimulation and incubated with peptide-pulsed T2 target cells at a ratio of 10:1 for 4 hour with Brefeldin A, Monensin (BD Biosciences) and CD107a PE-Cy5. […] After 4 hours of co-culture, responder T cells were stained for 10 minutes with the requisite peptide/pentamer reagent, then washed once and re-stained with CD8-Eflour605, CD45RA-FITC, and CD28-APC. Cells were then washed in PBS and stained with Aquadye (BD Biosciences) for analysis of viability. Labeled cells were then fixed and permeabilized in Fixation/Permeabilization solution (eBiosciences). […]

B cells = assay: TGF-β secretion by stimulated PBMCs from mRCC patients (ELISA); details: everolimus 10 ng/mL, 6 days, supernatant
Description: Frozen patient PBMC were thawed, counted, and washed in PBS. The cells were resuspended in X-VIVO 15 media (with gentamicin and phenol red; Lonza) at 2x10^6 cells/mL and incubated overnight in a 5% CO2 incubator at 37° C. The cells were counted and set up in culture at 1x10^6 cells/mL in X-VIVO 15 media. […] Everolimus (LC Laboratories) was added at 10 ng/mL to unstimulated or stimulated cultures. The cultures were incubated overnight in a 5% CO2 incubator at 37° C. for six days.
The concentration of total TGF-β1 in plasma and supernatant samples was quantified using the LEGEND MAX Total TGF-β1 ELISA Kit (Biolegend). Samples were prepared by acid treatment to activate latent TGF-β1 and then diluted 1:20 or 1:100 in assay buffer. Samples were incubated on a plate pre-coated with anti-TGF-β1 antibody for 2 hours. Anti-TGF-β1 was incubated for 1 hour, and the plate was washed and incubated with Avidin-HRP for 30 minutes. The plate was developed with TMB substrate solution and Stop solution, and was read at 450 nm and 570 nm using an ELx800 plate reader.
Thus, the impact of everolimus on B cell TGF-β production was investigated. PBMCs from mRCC patients were stimulated (“stim”) or left unstimulated (“control”) with or without everolimus addition as described in Example 1 to induce TGF-β secretion. TGF-β concentrations in the supernatant were measured after 6 days by ELISA.

MART-1 specific CTLs [5] = assay: Priming of MART-1 specific CTLs by PME-CD40L DCs in the presence of mTOR inhibitors; assay type: cell-based, human; details: in the presence of the mTOR inhibitor, 10 ng/ml to 1 ug/ml
Description: 300 x 10^6 peripheral blood mononuclear cells (PBMCs) were cultured in 30 mL AIM-V media (Thermo Fisher Scientific) in T150 flasks (Corning) for 2 hours to provide for the adherence of monocytes. Non-adherent cells were removed by washing the monolayers twice with cold phosphate buffered saline (PBS) (Cambrex), and the remaining monocytes were cultured in X-VIVO 15 medium (Cambrex) for 5 days, supplemented with 1000 U/mL each of granulocyte macrophage-colony stimulating factor (GM-CSF) (Bayer AG, Leukine® liquid) and IL-4 (R&D Systems). To achieve DC maturation, immature DCs were first cultured on day 5 with 10 ng/mL tumor necrosis factor alpha (TNF-α) (R&D Systems), 1000 µ/mL interferon gamma (IFN-y) (Actimmune), and 1 µg/mL prostaglandin E2 (PGE2) (Sigma). On day 6, phenotypically mature DCs were co-electroporated with RNA encoding CD40L (Argos Lot No. 101606 JSC) at a concentration of 3 ug per million DCs plus either human cytomegalovirus (CMV) pp65 or MART-1 encoding RNAs at 2 µg per million DCs (CMVpp65 RNA-Argos Lot No 071107XF, MART-1-APL RNA-Argos Lot No. 011909HC). […]
PME-CD40L DCs derived from HLA-A2-positive donors and transfected with antigen-encoding mRNAs were co-cultured with purified CD8^+ T cells. […] Induction of primary immune responses to MART-1 and memory/recall responses to CMV pp65 were measured on day 10. […]

[6] = autologous DCs 6 days, 2% mRCC patient plasma, 20 ng everolimus
[7] = autologous DCs, mRCC patient plasma, everolimus, statistically significant

## CO[C@H]1C[C@@H]2CC[C@@H](C)[C@@](O)(O2)C(=O)C(=O)N2CCCC[C@H]2C(=O)O[C@H]([C@H](C)C[C@@H]2CC[C@@H](OCCO)[C@H](OC)C2)CC(=O)[C@H](C)/C=C(\C)[C@@H](O)[C@@H](OC)C(=O)[C@H](C)C[C@H](C)/C=C/C=C/C=C/1C [everolimus]
[1]
  solubility in organic solvents: enhanced
  stability: greater
[2]
  side effects: fewer
[3]; [6]
  expression of CD25 on CD8 T cells (MFI): statistically significant increase
  expression of CD28 on CD8 T cells (MFI): statistically significant increase
  frequency of proliferating CD28- CD4 T cells: little impact
[3]; autologous DCs 6 days, 2% mRCC patient plasma, 20 ng everolimus on day 0, not statistically significant (p<0.283)
  frequency of proliferating CD28+ CD4 T cells suppressed by mRCC patient plasma: partially restored
[3]; autologous DCs 6 days, 2% mRCC patient plasma, 20 ng everolimus, p< 0.0002
  plasma mediated suppression of proliferating CD28+ CD8 T cells: partially reversed
[3]; autologous DCs 6 days, 2% mRCC patient plasma, 20 ng everolimus, p<0.92
  frequency of proliferating CD28- CD8 T cells: minimal ability to decrease
[3]; autologous DCs, mRCC patient plasma, everolimus, did not reach statistical significance
  frequency of CD25+CD28+ CD4 T cells: partially restored
[3]; [7]
  frequency of CD25+CD28+ CD8 T cells: partially restore
  frequency of CD25+CD28- CD8 T cells: partially restore
MART-1 specific CTLs [4]
  numbers of MART-1+ CTL secreting a cytokine or expressing CD107a: increased
B cells
  concentration of TGF-β secreted by stimulated B cells: decrease
MART-1 specific CTLs [5]
  priming of MART-1 specific CTLs by PME-CD40L DC: able to prime
